Measurements published in US20120115951A1, “PROTECTIVE ACTION OF SEROFENDIC ACID ON CARDIAC MUSCLE” (Eisai R & D Managment Co., Ltd, priority 2005, published 2012).

What was measured:
[1] = system: neonatal rat cardiac myocytes; assay: Time-lapse confocal analysis of intracellular ROS production (DCF fluorescence); type: cell-based; conditions: 100 μM SFA pretreatment; H2O2 for 30 min (50 μM, 100 μM elsewhere in the source)
Description: (§1) To monitor ΔΨm, cells were loaded with 100 nM tetramethylrhodamine ethyl ester (TMRE) (Molecular Probes) at 37° C. for 20 minutes. To monitor [Ca^2+]m, the cells were loaded with 2 μM […] (Molecular Probes) at 37° C. for 30 minutes. We assayed intracellular ROS production using chloromethyl-2,7-dichlorodihydrofluorescein diacetate (DCF) (Molecular Probes). Cells were loaded with 4 μM DCF at 37° C. for 30 minutes, and formation of the oxidized derivative was monitored by the increase of green fluorescence.
(§2) Cells plated on 35 mm glass-bottom dishes were maintained at 37° C. in the presence of 5% CO2 using a heater platform installed on a microscope stage, and were placed in serum-free DMEM. After the desired temperature was reached, time-lapse confocal microscopy was started with 2 minute intervals, using a 20× objective lens. Images were taken with laser scanning confocal microscopy (Zeiss, LSM510). […]
(§3) Twenty-five cells were randomly selected in each scan, and the red or green fluorescence intensity was sequentially monitored.
ROS is one of the most important inducers of MPTP opening. To investigate whether the suppression of ROS production is associated with the protective effects of SFA, the present inventors assessed the change of DCF fluorescence by 50 μM H2O2 stimulation in each group using time-lapse confocal microscopy (FIG. 4). […]

[2] = system: neonatal rat cardiac myocytes; assay: FACS analysis of ΔΨm in TMRE-loaded cells; type: cell-based; conditions: for protection against ΔΨm loss in the presence of mitoKATP channel blocker 5HD: 100 μM drug plus 500 μM 5HD
Description: (§4) Cardiac ventricular myocytes were prepared from 1-2-day-old Wister rats and cultured as previously described (Akao M, et al., Circ Res. 2001; 88:1267-75). In brief, the hearts were removed, and the ventricles were minced into small fragments, which were digested by trypsin dissociation. The dissociated cells were preplated for 1 hour to enrich the culture with myocytes. The non-adherent myocytes were then plated in plating medium consisting of Dulbecco's Modified Eagle Medium (DMEM) (Nacalai tesque; Kyoto, Japan) supplemented with 5% fetal calf serum, penicillin (100 U/ml), streptomycin ([…]), and 2 μg/ml vitamin B12. The final myocyte cultures contained >90% cardiac myocytes. The cells were maintained at 37° C. in the presence of 5% CO2 in a humidified incubator. Bromodeoxyuridine (0.1 mM) was incubated in the medium for the first 3 days after plating to inhibit fibroblast growth. Cultures were then placed in serum-free DMEM containing vitamin B12 and transferrin, 24 hours prior to the drug treatment.
as §1
For FACS analysis of ΔΨm, TMRE-loaded cells were harvested by trypsinization at the end of the experimental protocols, and analyzed using FACSAria (BD Biosciences; San Jose, Calif.) (20,000 cells/sample). The fluorescence intensity of TMRE was monitored at 582 nm (FL-2). The FACS data were analyzed using analysis software (WinMDI; http://facs/scripps.edu/software.html).
C=Control cells; H=Cells exposed to 100 μM H2O2 for 1 hour; SFA=Cells pretreated with 100 μM SFA followed by 100 μM H2O2 for 1 hour. In all histograms, the position of the major population of cells in the control group is indicated by a vertical dashed line. […] Cells were pretreated with various concentrations of SFA followed by 100 μM H2O2 for 1 hour. C=Control cells. SFA preserved ΔΨm in a concentration-dependent manner
FIG. 2c and FIG. 2d show the summarized data of the percentage of cells that maintain high (>200) TMRE fluorescence. The cells were pre-treated with various drugs shown in the figure and then treated with 100 μM H2O2 for 1 hour. DZ=100 μM diazoxide; 5HD=500 μM 5-hydroxydecanoate.

[3] = system: neonatal rat cardiac myocytes; assay: MTS assay of cell viability after H2O2; type: cell-based; conditions: 100 μM SFA; H2O2 treatment 3 hours; P<0.01 vs H group
Description: as §4, with “Bromodeoxyuridine (0.1 mM) was incubated in the medium for the first 3 days after plating to inhibit fibroblast growth. Cultures were then placed in serum-free DMEM containing vitamin B12 and transferrin, 24 hours prior to the drug treatment.” left out
Cell viability was quantified based on metabolic activity using the MTS assay (Promega; Madison, Wis.). […] The quantity of formazan product is directly proportional to the number of living cells in culture (Zhang H M, et al., Circ Res. 2002; 90:1251-8).
The cultures were incubated in serum-free medium containing 20 μl/well of the MTS tetrazolium compound for 3 hours at 37° C. The absorbance of formazan products was photometrically measured at 490 nm with a microplate reader, ARVOsx (PerkinElmer; Shelton, Wash.). Cell viability was expressed as the percentage of the absorbance measured in the control group. […]

[4] = system: neonatal rat cardiac myocytes; assay: TUNEL staining and DAPI staining of neonatal rat cardiac myocytes exposed to H2O2; type: cell-based
Description: as §4, with “Cultures were then placed in serum-free DMEM containing vitamin B12 and transferrin, 24 hours prior to the drug treatment.” left out
TUNEL staining was performed according to the manufacturer's protocol (Roche; Indianapolis, Ind.). Fluorescein labels incorporated in nucleotide polymers were detected with a fluorescence microscope (Axioskop 2 plus, Zeiss; Thornwood, N.Y.).
Cells were stained with the DNA binding dye DAPI (5 μM, Molecular Probes; Eugene, Oreg.). The nuclear morphology of cells were visualized and photographed with the fluorescence microscope. […]

[5] = system: cultured cortical and striatal neurons; conditions: in vitro; cited from earlier work
[6] = electron spin resonance analysis; cited from earlier work
[7] = Blood pressure measurement after femoral vein administration; type: in vivo, Sprague-Dawley male rats; conditions: 10 mg/kg into femoral vein; monitored until 10 minutes after administration; anesthetized rats
Description: The distal end of the common carotid artery of 8-week-old Sprague-Dawley male rats (about 250 g) was ligated under the effect of pentobarbital anesthetic. Then, to the proximate end thereof, a polyethylene tube filled with heparin-containing saline and connected to a pressure converter was inserted. Changes in blood pressure were recorded by a pen recorder.
A 24-gauge injection needle connected to a syringe via the tube was inserted into the femoral vein, and the liquid drug was injected over 1 to 2 minutes. The blood pressure was monitored from before the liquid drug administration until 10 minutes after the administration.
Serofendic acid was dissolved in Meylon (7% NaHCO3) at a concentration of 4 mg/mL. The blood pressure of each individual rat was measured after only the solvent was administered. Then, 10 mg/kg of serofendic acid was administered. The average of the blood pressure for 3 minutes before the administration of each of SFA and Meylon was set as 100%.

[8] = system: neonatal rat cardiac myocytes; assay: Time-lapse confocal analysis of ΔΨm loss (TMRE fluorescence); type: cell-based
Description: as §1
Cells plated on 35 mm glass-bottom dishes were maintained at 37° C. in the presence of 5% CO2 using a heater platform installed on a microscope stage, and were placed in serum-free DMEM. After the desired temperature was reached, time-lapse confocal microscopy was started with 2 minute intervals, using a 20× objective lens. Images were taken with laser scanning confocal microscopy (Zeiss, LSM510). TMRE and rhod-2 AM were excited at 543 nm using a helium/neon laser. DCF was excited at 488 nm using an argon laser.
as §3
To further confirm the protective effect of SFA in preventing the loss of ΔΨm, the present inventors examined the time-dependent changes of ΔΨm on a single-cell basis (FIG. 3). Time-lapse confocal analysis of cardiac myocytes loaded with TMRE was performed at 2-minute intervals. Time-lapse scanning began immediately after the application of 50 μM H2O2.
C=Control cells; H=Cells exposed to 100 μM H2O2 for 1 hour; SFA=Cells pretreated with 100 μM SFA followed by 100 μM H2O2 for 1 hour. Scale bars at 0 min frames: 20 μm.

[9] = system: neonatal rat cardiac myocytes; assay: Time-lapse confocal analysis of [Ca2+]m (rhod-2 fluorescence); type: cell-based; conditions: 100 μM SFA pretreatment; H2O2 for 1 hour (50 μM, 100 μM elsewhere in the source)
Description: as §1
as §2, with “lens.” for “lens. Images were taken with laser scanning confocal microscopy (Zeiss, LSM510).”
as §3
Calcium overload in mitochondrial matrix is one of the critical triggers of cell death and is also an important inducer of MPTP opening. To monitor the [Ca^2+]m level, the present inventors performed time-lapse confocal microscopy using the [Ca^2+]m sensitive dye, rhod-2, and observed the change of fluorescence due to 50 μM H2O2 stimulation in each group (FIG. 5). […]

[10] = system: isolated cardiac myocytes; conditions: previously reported (Akao et al. 2001); cited from earlier work
[11] = 25 randomly selected cells, 100 μM SFA, H2O2

SMILES	DCF fluorescence (intracellular ROS) [1]	concentration at which the ΔΨm-preserving effect reached its maximum level ([2]; 100 μM H2O2 for 1 hour)	protective effect in preventing the loss of ΔΨm, versus diazoxide ([2]; 100 μM SFA vs 100 μM diazoxide, 100 μM H2O2 for 1 hour)	effect of co-application with diazoxide on ΔΨm preservation ([2]; 100 μM diazoxide and 100 μM SFA vs SFA alone, 100 μM H2O2)	protection against ΔΨm loss in the presence of mitoKATP channel blocker 5HD ([2]; 100 μM H2O2)	effect on control level of ΔΨm ([2]; SFA alone in the absence of H2O2)	loss of ΔΨm (percentage of cells that maintain high (>200) TMRE fluorescence) ([2]; various concentrations of SFA followed by 100 μM H2O2 for 1 hour)	cellular viability evaluated by MTS assay [3]	nuclear morphology (DAPI staining) ([4]; 100 μM SFA, 100 μM H2O2 for 16 hours)	TUNEL-positive nuclei ([4]; pretreated with 100 μM SFA followed by 100 μM H2O2 for 16 hours, compared with H2O2 group)	protection of neurons against glutamate, nitric oxide, and H2O2 cytotoxicity [5]	hydroxyl radical-scavenging activity [6]	change in average blood pressure [7]	TMRE fluorescence over 60 minutes (time-lapse) ([8]; 100 μM SFA pretreatment, H2O2 (50 μM, 100 μM elsewhere in the source))	number of cells undergoing the dissipation of ΔΨm [8, 11]	onset of ΔΨm loss [8, 11]	rhod-2 fluorescence ([Ca2+]m overload) [9]	effect of 5HD alone on the loss of ΔΨm elicited by H2O2 ([2]; 500 μM 5HD, 100 μM H2O2)	loss of ΔΨm induced by oxidative stress [10]
C[S+]([O-])CC1C2CCC3(CCC4C(C)(C(=O)O)CCCC4(C)C3C2)C1O (single isomer, unassigned; ent-15) [SFA, ent-15β-hydroxy-17-methylsulfinyl-16α-atisan-19-oic acid]	suppressed the increase in DCF fluorescence	100 µM	comparable to 100 μM diazoxide	did not exhibit an additive effect	completely blocked	did not affect the control level of ΔΨm	prevented the loss of ΔΨm in a concentration-dependent manner	partly but significantly protected against H2O2-induced cytotoxicity	significant protective effect in the preservation of nuclear morphology	obviously fewer TUNEL-positive nuclei	exhibited the ability to protect cultured cortical and striatal neurons	exhibits hydroxyl radical-scavenging activity	no significant change in average blood pressure was observed	remarkably preserved	decreased the number of cells undergoing the dissipation of ΔΨm	delayed the onset of ΔΨm loss	partly attenuated the [Ca^2+]m overload	–	–
CCCCCC(O)CCCC(=O)O (centres unmarked) [5HD, 5-hydroxydecanoate, reference compound]	–	–	–	–	–	–	–	–	–	–	–	–	–	–	–	–	–	did not aggravate the loss of ΔΨn	–
CC1=NS(=O)(=O)c2cc(Cl)ccc2N1 [diazoxide, reference compound]	–	–	–	–	completely blocked	–	–	–	–	–	–	–	–	–	–	–	–	–	prevents the loss of ΔΨm induced by oxidative stress in a concentration-dependent manner
